What was measured:
[1] = molecular target: AP2-associated protein kinase 1 (Homo sapiens) (UniProt Q2M2I8); conditions: Compound concentration 1000.0 nM
[2] = molecular target: Tyrosine-protein kinase ABL2 (Homo sapiens) (UniProt P42684); conditions: Compound concentration 1000.0 nM
[3] = molecular target: Atypical kinase COQ8A, mitochondrial (Homo sapiens) (UniProt Q8NI60); conditions: Compound concentration 1000.0 nM
[4] = molecular target: Aurora kinase A (Homo sapiens) (UniProt O14965); conditions: Compound concentration 1000.0 nM
[5] = system: Serine/threonine-protein kinase B-raf (Homo sapiens), P15056 [V600E]; conditions: Compound concentration 1000.0 nM
[6] = molecular target: Cyclin-dependent kinase 13 (Homo sapiens) (UniProt Q14004); conditions: Compound concentration 1000.0 nM
[7] = molecular target: Cyclin-dependent kinase 4 (Homo sapiens) (UniProt P11802); conditions: Compound concentration 1000.0 nM
[8] = system: Epidermal growth factor receptor (Homo sapiens), P00533 [UNDEFINED MUTATION]; conditions: Compound concentration 1000.0 nM
[9] = molecular target: Receptor tyrosine-protein kinase erbB-3 (Homo sapiens) (UniProt P21860); conditions: Compound concentration 1000.0 nM
[10] = molecular target: Beta-adrenergic receptor kinase 1 (Homo sapiens) (UniProt P25098); conditions: Compound concentration 1000.0 nM
[11] = molecular target: Inhibitor of nuclear factor kappa-B kinase subunit epsilon (Homo sapiens) (UniProt Q14164); conditions: Compound concentration 1000.0 nM
[12] = molecular target: Mitogen-activated protein kinase kinase kinase kinase 2 (Homo sapiens) (UniProt Q12851); conditions: Compound concentration 1000.0 nM
[13] = molecular target: MAP kinase-activated protein kinase 5 (Homo sapiens) (UniProt Q8IW41); conditions: Compound concentration 1000.0 nM
[14] = molecular target: MAP/microtubule affinity-regulating kinase 4 (Homo sapiens) (UniProt Q96L34); conditions: Compound concentration 1000.0 nM
[15] = molecular target: Dual specificity mitogen-activated protein kinase kinase 5 (Homo sapiens) (UniProt Q13163); conditions: Compound concentration 1000.0 nM
[16] = molecular target: Serine/threonine-protein kinase 3 (Homo sapiens) (UniProt Q13188); conditions: Compound concentration 1000.0 nM
[17] = molecular target: Serine/threonine-protein kinase 38 (Homo sapiens) (UniProt Q15208); conditions: Compound concentration 1000.0 nM
[18] = molecular target: Serine/threonine-protein kinase Nek5 (Homo sapiens) (UniProt Q6P3R8); conditions: Compound concentration 1000.0 nM
[19] = molecular target: Serine/threonine-protein kinase Nek6 (Homo sapiens) (UniProt Q9HC98); conditions: Compound concentration 1000.0 nM
[20] = system: Phosphatidylinositol 4,5-bisphosphate 3-kinase catalytic subunit alpha isoform (Homo sapiens), P42336 [E545A]; conditions: Compound concentration 1000.0 nM
[21] = system: Phosphatidylinositol 4,5-bisphosphate 3-kinase catalytic subunit alpha isoform (Homo sapiens), P42336 [H1047L]; conditions: Compound concentration 1000.0 nM
[22] = molecular target: Serine/threonine-protein kinase pim-2 (Homo sapiens) (UniProt Q9P1W9); conditions: Compound concentration 1000.0 nM
[23] = molecular target: Serine/threonine-protein kinase PLK4 (Homo sapiens) (UniProt O00444); conditions: Compound concentration 1000.0 nM
[24] = molecular target: Serine/threonine-protein kinase RIO2 (Homo sapiens) (UniProt Q9BVS4); conditions: Compound concentration 1000.0 nM
[25] = molecular target: TGF-beta receptor type-2 (Homo sapiens) (UniProt P37173); conditions: Compound concentration 1000.0 nM
[26] = molecular target: High affinity nerve growth factor receptor (Homo sapiens) (UniProt P04629); conditions: Compound concentration 1000.0 nM
[27] = molecular target: Wee1-like protein kinase (Homo sapiens) (UniProt P30291); conditions: Compound concentration 1000.0 nM
[28] = molecular target: Serine/threonine-protein kinase WNK4 (Homo sapiens) (UniProt Q96J92); conditions: Compound concentration 1000.0 nM
[29] = molecular target: D(1B) dopamine receptor (Homo sapiens) (UniProt P21918); conditions: Compound concentration 10.0 uM
[30] = molecular target: T1, Alpha-2A adrenergic receptor (Homo sapiens) (UniProt P08913); conditions: Compound concentration 10.0 uM
T1 sequence (whole entry): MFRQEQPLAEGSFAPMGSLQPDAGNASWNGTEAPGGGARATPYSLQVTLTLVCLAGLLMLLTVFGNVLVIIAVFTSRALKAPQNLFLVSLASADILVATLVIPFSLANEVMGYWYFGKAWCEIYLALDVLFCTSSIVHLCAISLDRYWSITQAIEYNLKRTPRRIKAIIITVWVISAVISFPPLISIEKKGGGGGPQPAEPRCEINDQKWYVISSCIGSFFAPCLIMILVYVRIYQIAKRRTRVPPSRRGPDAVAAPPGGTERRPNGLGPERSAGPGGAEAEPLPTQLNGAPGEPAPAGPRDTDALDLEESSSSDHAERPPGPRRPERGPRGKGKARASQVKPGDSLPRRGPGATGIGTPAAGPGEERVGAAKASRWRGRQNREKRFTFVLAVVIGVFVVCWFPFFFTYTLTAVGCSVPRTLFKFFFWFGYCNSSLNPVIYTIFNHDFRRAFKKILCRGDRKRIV

[31] = molecular target: T2, Muscarinic acetylcholine receptor M1 (Homo sapiens) (UniProt P11229); conditions: Compound concentration 10.0 uM
T2 sequence (whole entry): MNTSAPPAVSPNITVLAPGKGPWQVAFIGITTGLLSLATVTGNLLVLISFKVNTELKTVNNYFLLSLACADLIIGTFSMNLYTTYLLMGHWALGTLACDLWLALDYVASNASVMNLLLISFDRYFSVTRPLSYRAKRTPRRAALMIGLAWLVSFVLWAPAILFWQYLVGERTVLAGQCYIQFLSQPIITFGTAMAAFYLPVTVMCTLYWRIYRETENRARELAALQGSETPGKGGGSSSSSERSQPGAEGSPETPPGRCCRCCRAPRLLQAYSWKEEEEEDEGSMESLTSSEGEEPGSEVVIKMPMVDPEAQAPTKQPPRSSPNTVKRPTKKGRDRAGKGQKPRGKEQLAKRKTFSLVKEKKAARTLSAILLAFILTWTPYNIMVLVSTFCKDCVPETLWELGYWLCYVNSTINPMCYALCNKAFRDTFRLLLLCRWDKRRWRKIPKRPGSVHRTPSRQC

Rattus norvegicus = species on record: Rattus norvegicus; conditions: Compound concentration 10.0 uM
[32] = molecular target: Sigma intracellular receptor 2 (Homo sapiens, UniProt Q5BJF2); conditions: Compound concentration 10.0 uM

Sequence of Epidermal growth factor receptor (Homo sapiens), P00533 [UNDEFINED MUTATION] (P00533 whole entry, looked up, change not shown): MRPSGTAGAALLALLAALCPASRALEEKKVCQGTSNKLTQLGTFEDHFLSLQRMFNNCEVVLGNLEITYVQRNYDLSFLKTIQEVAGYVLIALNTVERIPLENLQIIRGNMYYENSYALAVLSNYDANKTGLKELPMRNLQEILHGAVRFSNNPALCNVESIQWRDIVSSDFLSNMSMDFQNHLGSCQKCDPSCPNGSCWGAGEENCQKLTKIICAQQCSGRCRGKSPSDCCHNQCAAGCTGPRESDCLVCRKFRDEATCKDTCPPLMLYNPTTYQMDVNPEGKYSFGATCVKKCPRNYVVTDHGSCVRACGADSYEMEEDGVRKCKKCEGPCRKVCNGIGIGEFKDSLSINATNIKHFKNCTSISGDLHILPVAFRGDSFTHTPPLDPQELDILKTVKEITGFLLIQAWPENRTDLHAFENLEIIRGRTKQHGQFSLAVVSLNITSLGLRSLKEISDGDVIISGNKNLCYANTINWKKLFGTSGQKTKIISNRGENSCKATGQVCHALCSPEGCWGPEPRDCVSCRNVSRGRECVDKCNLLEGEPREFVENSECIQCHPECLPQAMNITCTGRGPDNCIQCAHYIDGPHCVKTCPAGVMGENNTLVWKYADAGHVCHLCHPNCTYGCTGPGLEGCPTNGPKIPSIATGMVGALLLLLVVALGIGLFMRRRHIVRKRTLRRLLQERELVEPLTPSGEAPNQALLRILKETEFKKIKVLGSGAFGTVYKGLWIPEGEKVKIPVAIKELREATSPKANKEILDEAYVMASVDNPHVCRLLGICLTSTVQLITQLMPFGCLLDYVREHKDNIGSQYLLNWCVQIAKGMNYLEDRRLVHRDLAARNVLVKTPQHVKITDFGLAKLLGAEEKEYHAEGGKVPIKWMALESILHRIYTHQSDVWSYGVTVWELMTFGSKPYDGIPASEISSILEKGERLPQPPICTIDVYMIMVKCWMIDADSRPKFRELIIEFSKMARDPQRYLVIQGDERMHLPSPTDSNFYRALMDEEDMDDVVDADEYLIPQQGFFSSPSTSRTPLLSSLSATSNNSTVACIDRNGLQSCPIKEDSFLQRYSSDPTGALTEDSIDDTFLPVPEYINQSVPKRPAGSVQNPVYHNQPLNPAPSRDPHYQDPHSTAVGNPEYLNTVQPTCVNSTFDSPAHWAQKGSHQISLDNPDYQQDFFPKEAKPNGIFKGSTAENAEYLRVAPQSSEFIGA
Sequence of MAP kinase-activated protein kinase 5 (Homo sapiens) (Q8IW41 whole entry): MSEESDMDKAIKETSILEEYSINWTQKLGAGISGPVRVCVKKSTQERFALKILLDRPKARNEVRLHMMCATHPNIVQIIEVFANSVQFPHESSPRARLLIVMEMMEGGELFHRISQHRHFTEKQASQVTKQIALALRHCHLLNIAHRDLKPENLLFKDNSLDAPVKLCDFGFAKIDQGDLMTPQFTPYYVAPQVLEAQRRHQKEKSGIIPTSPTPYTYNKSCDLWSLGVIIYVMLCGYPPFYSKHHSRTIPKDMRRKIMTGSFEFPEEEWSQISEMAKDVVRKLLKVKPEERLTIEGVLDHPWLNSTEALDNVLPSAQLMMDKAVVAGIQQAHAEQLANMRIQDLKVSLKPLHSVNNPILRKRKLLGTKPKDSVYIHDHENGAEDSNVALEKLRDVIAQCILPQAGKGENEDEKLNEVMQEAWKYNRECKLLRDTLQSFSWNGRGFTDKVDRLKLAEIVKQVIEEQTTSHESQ
Sequence of Cyclin-dependent kinase 4 (Homo sapiens) (P11802 whole entry): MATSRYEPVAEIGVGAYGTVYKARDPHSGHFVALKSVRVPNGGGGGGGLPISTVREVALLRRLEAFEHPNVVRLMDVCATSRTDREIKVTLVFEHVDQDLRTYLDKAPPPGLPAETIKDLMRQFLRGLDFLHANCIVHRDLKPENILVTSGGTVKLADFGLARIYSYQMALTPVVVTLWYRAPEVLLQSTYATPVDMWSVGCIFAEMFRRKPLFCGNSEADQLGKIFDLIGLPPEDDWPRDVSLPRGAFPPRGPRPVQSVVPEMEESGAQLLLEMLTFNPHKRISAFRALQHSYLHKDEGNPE
Sequence of MAP/microtubule affinity-regulating kinase 4 (Homo sapiens) (Q96L34 whole entry): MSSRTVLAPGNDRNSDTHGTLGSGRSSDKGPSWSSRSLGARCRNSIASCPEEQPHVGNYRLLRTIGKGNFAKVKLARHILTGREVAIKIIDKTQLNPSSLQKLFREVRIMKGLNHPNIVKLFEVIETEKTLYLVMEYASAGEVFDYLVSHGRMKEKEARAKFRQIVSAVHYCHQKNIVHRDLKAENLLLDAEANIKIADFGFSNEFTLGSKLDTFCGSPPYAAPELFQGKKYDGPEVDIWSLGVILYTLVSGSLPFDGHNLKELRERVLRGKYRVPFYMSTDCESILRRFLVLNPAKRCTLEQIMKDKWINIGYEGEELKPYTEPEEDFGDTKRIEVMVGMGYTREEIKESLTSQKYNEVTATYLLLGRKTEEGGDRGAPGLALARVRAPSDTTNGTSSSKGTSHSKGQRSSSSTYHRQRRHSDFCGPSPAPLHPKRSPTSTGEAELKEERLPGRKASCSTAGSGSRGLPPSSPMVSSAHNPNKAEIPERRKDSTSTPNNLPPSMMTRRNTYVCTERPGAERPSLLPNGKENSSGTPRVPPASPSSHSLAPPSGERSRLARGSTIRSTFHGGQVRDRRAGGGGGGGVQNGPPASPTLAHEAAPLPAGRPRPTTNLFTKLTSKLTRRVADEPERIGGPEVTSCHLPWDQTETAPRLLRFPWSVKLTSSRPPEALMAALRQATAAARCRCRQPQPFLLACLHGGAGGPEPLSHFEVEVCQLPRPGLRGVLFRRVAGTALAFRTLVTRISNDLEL
Sequence of Aurora kinase A (Homo sapiens) (O14965 whole entry): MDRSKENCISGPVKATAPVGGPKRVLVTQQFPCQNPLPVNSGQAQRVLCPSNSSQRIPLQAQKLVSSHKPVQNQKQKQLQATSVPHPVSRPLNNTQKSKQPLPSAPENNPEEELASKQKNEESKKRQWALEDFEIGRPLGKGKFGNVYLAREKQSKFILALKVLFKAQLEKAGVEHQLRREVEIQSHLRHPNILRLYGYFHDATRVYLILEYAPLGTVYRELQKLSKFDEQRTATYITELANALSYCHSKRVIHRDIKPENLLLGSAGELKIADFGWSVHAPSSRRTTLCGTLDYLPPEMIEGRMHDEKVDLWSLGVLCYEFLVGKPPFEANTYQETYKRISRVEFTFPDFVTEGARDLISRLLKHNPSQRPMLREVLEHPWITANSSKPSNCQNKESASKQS
Sequence of Inhibitor of nuclear factor kappa-B kinase subunit epsilon (Homo sapiens) (Q14164 whole entry): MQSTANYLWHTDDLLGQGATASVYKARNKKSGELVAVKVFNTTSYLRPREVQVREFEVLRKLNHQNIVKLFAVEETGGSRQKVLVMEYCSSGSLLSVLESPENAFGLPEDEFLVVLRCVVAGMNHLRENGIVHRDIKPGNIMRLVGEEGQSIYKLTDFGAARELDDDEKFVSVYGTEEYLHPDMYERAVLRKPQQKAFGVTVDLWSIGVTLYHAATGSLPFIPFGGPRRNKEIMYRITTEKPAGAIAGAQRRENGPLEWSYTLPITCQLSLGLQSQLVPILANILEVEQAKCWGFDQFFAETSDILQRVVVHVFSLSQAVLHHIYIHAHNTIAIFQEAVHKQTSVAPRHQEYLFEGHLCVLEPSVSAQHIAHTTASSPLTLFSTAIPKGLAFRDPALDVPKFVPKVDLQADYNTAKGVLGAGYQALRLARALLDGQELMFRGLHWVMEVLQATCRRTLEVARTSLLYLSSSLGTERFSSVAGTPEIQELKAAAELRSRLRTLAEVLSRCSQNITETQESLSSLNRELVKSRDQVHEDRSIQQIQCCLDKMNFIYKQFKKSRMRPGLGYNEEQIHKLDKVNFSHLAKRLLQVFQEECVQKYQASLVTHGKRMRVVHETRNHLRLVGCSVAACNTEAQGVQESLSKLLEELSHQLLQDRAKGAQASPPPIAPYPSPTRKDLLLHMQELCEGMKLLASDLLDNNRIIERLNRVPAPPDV
Sequence of Beta-adrenergic receptor kinase 1 (Homo sapiens) (P25098 whole entry): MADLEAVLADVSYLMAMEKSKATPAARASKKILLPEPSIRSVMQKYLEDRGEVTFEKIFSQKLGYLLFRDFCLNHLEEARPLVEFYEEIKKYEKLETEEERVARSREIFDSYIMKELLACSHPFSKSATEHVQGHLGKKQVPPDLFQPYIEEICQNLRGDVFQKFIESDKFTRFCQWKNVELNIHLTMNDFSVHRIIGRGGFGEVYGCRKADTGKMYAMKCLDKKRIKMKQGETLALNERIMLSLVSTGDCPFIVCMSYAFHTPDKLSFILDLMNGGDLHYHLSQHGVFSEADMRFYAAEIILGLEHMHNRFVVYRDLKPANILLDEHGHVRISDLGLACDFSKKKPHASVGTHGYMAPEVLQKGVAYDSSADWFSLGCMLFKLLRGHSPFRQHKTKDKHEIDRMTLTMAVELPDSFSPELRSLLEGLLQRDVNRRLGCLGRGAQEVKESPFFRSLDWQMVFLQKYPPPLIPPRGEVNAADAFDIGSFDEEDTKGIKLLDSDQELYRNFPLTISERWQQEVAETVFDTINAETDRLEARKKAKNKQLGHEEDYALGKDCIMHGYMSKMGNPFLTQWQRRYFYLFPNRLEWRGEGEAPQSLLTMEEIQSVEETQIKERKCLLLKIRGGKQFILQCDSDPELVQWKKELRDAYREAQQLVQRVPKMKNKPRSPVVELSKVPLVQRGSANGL
Sequence of Serine/threonine-protein kinase Nek6 (Homo sapiens) (Q9HC98 whole entry, canonical isoform): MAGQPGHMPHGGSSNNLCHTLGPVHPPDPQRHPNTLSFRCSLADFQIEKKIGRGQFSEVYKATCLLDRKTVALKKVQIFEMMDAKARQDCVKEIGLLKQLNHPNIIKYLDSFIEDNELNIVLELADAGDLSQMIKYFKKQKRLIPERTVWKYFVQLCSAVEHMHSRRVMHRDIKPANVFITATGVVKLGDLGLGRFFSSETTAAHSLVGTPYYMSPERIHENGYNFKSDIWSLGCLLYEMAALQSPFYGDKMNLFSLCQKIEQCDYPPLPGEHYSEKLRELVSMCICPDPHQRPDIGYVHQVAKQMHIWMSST

Structure (SMILES) | residual activity [1] [%] | residual activity [2] [%] | residual activity [3] [%] | residual activity [4] [%] | residual activity [5] [%] | residual activity [6] [%] | residual activity [7] [%] | residual activity [8] [%] | residual activity [9] [%] | residual activity [10] [%] | residual activity [11] [%] | residual activity [12] [%] | residual activity [13] [%] | residual activity [14] [%] | residual activity [15] [%] | residual activity [16] [%] | residual activity [17] [%] | residual activity [18] [%] | residual activity [19] [%] | residual activity [20] [%] | other results
O=C(Nc1cccnn1)N1CC(C/C=C/c2cncc(Oc3ccc(C(F)(F)F)cn3)n2)C1 | 100 | 100 | 96 | 100 | 85 | 98 | 94 | 100 | 99 | 96 | 77 | 80 | 76 | 100 | 88 | 80 | 99 | 100 | 100 | 75 | residual activity [21]: 100%; residual activity [22]: 100%; residual activity [23]: 98%; residual activity [24]: 77%; residual activity [25]: 100%; residual activity [26]: 82%; residual activity [27]: 100%; residual activity [28]: 0%; inhibition [29]: 4.5%; inhibition [30]: 0.68%; inhibition [31]: -6.78%; inhibition (Rattus norvegicus): 25.6%; inhibition [32]: 69%
O=C(Nc1cccnn1)N1CCC(=Cc2cccc(Oc3ccc(C(F)(F)F)cn3)c2)CC1 | 74 | 99 | 78 | 100 | 100 | 100 | 96 | 83 | 84 | 100 | 100 | 100 | 100 | 76 | 100 | 100 | 100 | 97 | 100 | 100 | residual activity [21]: 100%; residual activity [22]: 97%; residual activity [23]: 100%; residual activity [24]: 100%; residual activity [25]: 76%; residual activity [26]: 100%; residual activity [27]: 97%; residual activity [28]: 96%; inhibition [29]: 29.3%; inhibition [30]: 34.5%; inhibition [31]: 29.5%; inhibition (Rattus norvegicus): 59.6%; inhibition [32]: 91.3%
